4 compounds from PMC10064330, “Reversible Dual-Covalent Molecular Locking of the 14-3-3/ERRγ Protein–Protein Interaction as a Molecular Glue Drug Discovery Approach” (Journal of the American Chemical Society, 2023) can be followed below.

SMILES strings stand for the structures.

In the assay the target is T1, 14-3-3γ/ERRγ complex (Homo sapiens, UniProt P61981+P62508).
T1 construct: made in house; host or cells: E. coli NiCo21 (DE3)
Put plainly: Fluorescence anisotropy (FA): 14-3-3γ titration to fluorescein-ERRγ phosphopeptide with 100 μM compound. In kind it is binding. The following applies: for SF100 / stabilization (SF100) at high TCEP / stabilization of 14-3-3γ/ERRγ complex (SF100, fold): 100 μM compound; for SF100: 50 μM TCEP; for stabilization (SF100) at high TCEP: 1 mM TCEP; for stabilization factor SF100, Replicate 1 (Table S2) / stabilization factor SF100, Replicate 2 (Table S2) / stabilization factor SF100, Replicate 3 (Table S2) / stabilization factor SF100, Average (Table S2): KD DMSO control / apparent KD with 100 μM compound, 24 h; for stabilization factor SF100, Average (Table S2): average of three experiments; for stabilization of 14-3-3γ/ERRγ complex (SF100, fold): 24 h incubation. The method, then:
The stabilization of the ERRγ/14-3-3γ complex by the molecular locks was assessed using a fluorescence anisotropy (FA) assay where 14-3-3γ was titrated into a fluorescently labeled ERRγ phosphopeptide in the absence or presence of a 100 μM molecular lock (Figure 2a,b); this compound concentration was selected based on a FA compound titration assay (Figure S1).
Experimental Section Biophysical Assays
14-3-3γ protein expression (FA, TSA, MS assays)
A pPROEX HTb expression vector encoding the human 14-3-3 protein gamma (14-3-3γ) with a N-terminal his6-tag was transformed by heat shock into NiCo21 (DE3) competent cells. Single colonies were cultured in 50 mL LB medium (100 µg/mL ampicillin). After overnight incubation at 37 °C, cultures were transferred to 2 L TB media (100 µg/mL ampicillin, 1 mM MgCl2) and incubated at 37 °C until an OD600 nm of 0.8 -1.2 was reached. Protein expression was then induced with 0.4 mM isopropyl-β-d-thiogalactoside (IPTG), and cultures were incubated overnight at 18 °C. Cells were harvested by centrifugation (8600 rpm, 20 minu tes, 4 °C) and resuspended in lysis buffer (50 mM Hepes, pH 8.0, 300 mM NaCl, 12.5 mM imidazole, 5 mM MgCl2, 2 mM βME) containing cOmplete™ EDTA-free Protease Inhibitor Cocktail tablets (1 tablet/100 ml lysate) and benzonase ( 5 µl/100 ml). After lysis using a C3 Emulsiflex-C3 homogenizer (Avestin), the cell lysate was cleared by centrifugation (20000 rpm, 30 minutes, 4 °C) and purified using Ni2+-affinity chromatography (Ni -NTA superflow cartridges, Qiagen). Typically two 5 mL columns (flow 5 mL/min) were use d for a 2 L culture in which the lysate was loaded on the column , washed with 10 CV wash buffer (50 mM Hepes, pH 8.0, 300 mM NaCl, 25 mM imidazole, 2 mM βME), and eluted in several fractions (2-4 CV) of elution buffer (50 mM Hepes, pH 8.0, 300 mM NaCl, 250 mM imidazole, 2 mM βME). Fractions containing the 14 -3-3 protein were combined and dialyzed into 25 mM HEPES pH 8.0, 100 mM NaCl, 10 mM MgCl2, 500 µM TCEP. Finally, the protein was concentrated to ∼60 mg/mL, analyzed Q-Tof LC/MS, and aliquots were flash-frozen for storage at −80 °C.
14-3-3σΔc C38N protein expression (Crystallography)
A pPROEX HTb expression vector encoding the human 14-3-3 protein sigma truncated after T231 (14-3-3σΔc), mutated C38N, and containing a N-terminal his6-tag was transformed by heat shock into NiCo21 (DE3) competent cells. Single colonies were cultured in 50 mL LB medium (100 µg/mL ampicillin). After overnight incubation at 37 °C, cultures were transferred to 2 L TB media (100 µg/mL ampicillin, 1 mM MgCl2) and incubated at 37 °C until an OD600 nm of 0.8-1.2 was reached. Protein expression was then induced with 0.4 mM isopropyl-β-d-thiogalactoside (IPTG), and cultures were incubated overnight at 18 °C. Cells were harvested by centrifugation (8600 rpm, 20 minutes, 4 °C) and resuspended in lysis buffer (50 mM Hepes, pH 8.0, 300 mM NaCl, 12.5 mM imidazole, 5 mM MgCl2, 2 mM βME) containing cOmplete™ EDTA-free Protease Inhibitor Cocktail tablets (1 tablet/ 100 ml lysate) and benzonase (5 µl/ 100 ml). After lysis using a C3 Emulsiflex-C3 homogenizer (Avestin), […]
chromatography (Ni-NTA superflow cartridges, Qiagen). Typically two 5 mL columns were used for a 2 L culture in which the lysate was loaded on the column , washed with 10 CV wash buffer (50 mM Hepes, pH 8.0, 300 mM NaCl, 25 mM imidazole, 2 mM βME), and eluted with several fractions (2 -4 CV) of elution buffer (50 mM Hepes, pH 8.0, 300 mM NaCl, 250 mM imidazole, 2 mM βME). Fractions containing the 14-3-3 protein were combined and dialyzed into 25 mM HEPES pH 8.0, 200 mM NaCl, 10 mM MgCl 2, 2 mM βME. In addition, 1 mg TEV was added for each 100 mg purified protein to remove the purification tag. The cleaved sample was then again loaded on a 10 mL Ni-NTA column to separate the cleaved product from the expression tag and residual uncleaved protein. The flowthrough was loaded on a Superdex 75 pg 16/60 size exc lusion column (GE Life Sciences) using […]
(Polarisation of emitted light reports the rotation of a fluorescent probe.)

T1 sequence (P61981 whole entry, other chains not shown): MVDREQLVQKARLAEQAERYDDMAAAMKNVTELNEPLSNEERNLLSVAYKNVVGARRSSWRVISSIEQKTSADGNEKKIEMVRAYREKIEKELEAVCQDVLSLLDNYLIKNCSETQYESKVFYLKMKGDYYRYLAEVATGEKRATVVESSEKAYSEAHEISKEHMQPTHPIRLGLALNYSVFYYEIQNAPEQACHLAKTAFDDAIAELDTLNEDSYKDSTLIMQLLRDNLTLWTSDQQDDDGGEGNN

In the case of `CN(C)CCSSCCN(C)C(=O)c1cc(Br)cc(C=O)c1` [compound 10], the SF100 is on record as 37; the “stabilization (SF100) at high TCEP” value is recorded as “completely abolished”; the “stabilization factor SF100, Replicate 1 (Table S2)” value is recorded as 37.6; the “stabilization factor SF100, Replicate 2 (Table S2)” value came out at 34.1. The “stabilization factor SF100, Replicate 3 (Table S2)” value was 38.8 and the “stabilization factor SF100, Average (Table S2)” value amounted to 36.9.
In the case of `CN(C)CCSSCCN(C)C(=O)c1cccc(F)c1` [compound 1, reference compound], the SF100 was determined as 5; the “stabilization (SF100) at high TCEP” value is “completely abolished”; the “stabilization of 14-3-3γ/ERRγ complex (SF100, fold)” value was “five-fold”; the “stabilization factor SF100, Replicate 1 (Table S2)” value was 5.3. Also, the “stabilization factor SF100, Replicate 2 (Table S2)” value is listed as 3.7; the “stabilization factor SF100, Replicate 3 (Table S2)” value was 4.6; the “stabilization factor SF100, Average (Table S2)” value worked out at 4.6.
With `CN(C)CCSSCCN(C)C(=O)c1ccc(C=O)c(F)c1` [compound 5], the “stabilization (SF100) at high TCEP” value was “completely abolished”; the “stabilization factor SF100, Replicate 1 (Table S2)” value stood at 27.0; the “stabilization factor SF100, Replicate 2 (Table S2)” value is 17.8; the “stabilization factor SF100, Replicate 3 (Table S2)” value was 16.5. In addition, the “stabilization factor SF100, Average (Table S2)” value turned out to be 20.4.
For `CN(C)CCNC(=O)c1ccc(C=O)c(F)c1` [compound 3], the “stabilization of 14-3-3γ/ERRγ complex (SF100, fold)” value was found to be 1; the “stabilization factor SF100, Replicate 1 (Table S2)” value came to 1.0; the “stabilization factor SF100, Replicate 2 (Table S2)” value was 1.0; the “stabilization factor SF100, Replicate 3 (Table S2)” value is on record as 0.9. For the same compound, the “stabilization factor SF100, Average (Table S2)” value is recorded as 1.0.
